Key:
[1] = system: phenylquinone writhing in mice; experiment: phenylquinone writhing test in mice (analgesic); assay type: in vivo, Carworth CF-lS male mice; conditions: po; mouse; intubated in 0.5% methylcellulose; phenylquinone 1.25 mg/kg i.p. 30 min later; observed 30-40 min after antagonist
Description: An equally reliable test that is used for testing analgesic activity of compounds is the phenylquinone writhing test in mice.
Writhing was caused in mice by the intraperitoneal injection of phenyl-p-benzoquinone (Siegmund, E., Cadmus, R., Lu, G., Proc. Soc. Exp. Biol, and Med., 95, 729, 1957).
Groups of 10 or more Carworth CF-lS male mice, 18-21 g each, were fasted 17-21 hours and were intubated with the writhing antagonist at several dose levels in 0.5% methylcellulose. 30 Minutes later the mice were challenged with phenylquinone (1.25 mg./kg., i.p., dissolved in ethanol and diluted to 5% ethanol with distilled water at 40° C.). […] ED50' s were obtained by the Litchfield and Wilcoxon Method (Litchfield, J. T. and Wilcoxon, F., J.P.E.T., 96, 99 1949) and the Weil moving average method (Weil, C., Biometrics, 8 ,249 1952). Peak time studies were also done with some of these compounds and their peak time ED50' s were recorded.

[2] = system: Adjuvant-Induced Arthritis in Rats; experiment: Established Adjuvant-Induced Arthritis in Rats (paw volume); assay type: in vivo, Charles River Lewis male rats; conditions: 24 h; rat; oral; dosed that day and 6 following days; ED50% decrease from control paw volume (uninjected left hind paw), one day after last dose
Description: A standard procedure for detecting and comparing the anti-inflammatory activity of compounds in this series for which there is good correlation with human efficacy is the adjuvant-induced arthritis test in rats.
Established Adjuvant-Induced Arthritis in Rats
Charles River Lewis male rats (130-150 grams) are injected subcutaneously in the plantar area of the right hind paw with 0.1 ml of adjuvant (Difco heat-killed, lyophilized Myobacterium butyricum suspended in mineral oil 5 mg./ml.). 20 Non-arthritic controls are injected with mineral oil. The animals are held for 2 weeks to allow development of arthritis. Paw volumes (uninjected, left hand paw) are measured and the adjuvant injected rats are culled and distributed to treatment groups of 10 of equal disease severity. Non-arthritic controls are distributed to 2 groups of 10. The rats are given oral doses of compound or PVA-Acacia (10 ml./kg.) on that day and on the 6 following days. One day after the last dose the paw volumes (uninjected, left hind paw) are measured using a Ugo Basile Volume Differential Meter Model 7101. [formula]
Dose-response regression lines of the % decrease are plotted on semi-log paper by visual fit and the ED50% decrease from control paw volume is determined by inspection.

Row | Compound | ED50 [1] [mg/kg] | ED50 [2] [mg/kg]
1 | COc1ccc(-c2nc3n(c2-c2ccc(OC)cc2)CC[S+]3[O-])cc1 (stereo not shown) [1 H H H H, 2,3-Dihydro-5,6-bis(p-methoxyphenyl)imidazo[2,1-b]thiazole S-oxide] | 8.7 | 7.4
2 | COc1ccc(-c2nc3n(c2-c2ccc(OC)cc2)C(F)C(F)(F)S3)cc1 (stereo not shown) [0 F F H F, 2,3-Dihydro-2,2,3-trifluoro-5,6-bis(p-methoxyphenyl)imidazo-[2,1-b]thiazole] |  | 11
3 | COc1ccc(-c2nc3n(c2-c2ccc(OC)cc2)CCS3)cc1 [0 H H H H, 2,3-Dihydro-5,6-bis(p-methoxyphenyl)imidazo[2,1-b]thiazole] | 64 | 5.5
4 | COc1ccc(-c2nc3n(c2-c2ccc(OC)cc2)CCS3(=O)=O)cc1 [2 H H H H, 2,3-Dihydro-5,6-bis(p-methoxyphenyl)imidazo[2,1-b]thiazole S,S-dioxide] | > 130 | 8

Reference: US4064260A, “Anti-inflammatory diarylimidazothiazoles and their corresponding S-oxides” (E. I. Du Pont de Nemours and Company, priority 1976, dated 1977)
